Test results: patent publication US12144864B2, “Tubulysins and protein-tubulysin conjugates” (Regeneron Pharmaceuticals, Inc., priority 2018, dated 2024)
Read-outs that look alike come from different tables or passages of the source.

Columns and labels:
C4-2 cells = assay: Cell-based killing assay of payloads (CellTiter-Glo), C4-2 cells; parameters: species or system human; conditions: 5-day incubation; for IC50: Homo sapiens, C4-2, 120 h, average ± SD where replicates; for C4-2 % Kill: at maximum concentration tested (100 − % viable cells)
In short: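 Viability readout is CellTiter-Glo luminescence after a 5-day exposure to 10-point, threefold-diluted payloads spanning 100 nM–[…], following overnight attachment of 4000 cells/well. Four-parameter logistic fit gives IC50 in M; % kill taken at highest concentration tested.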

T47D cells = assay: Cell-based killing assay of payloads (CellTiter-Glo), T47D cells; parameters: species or system human; conditions: 5-day incubation; for IC50: Homo sapiens, T47D, 120 h; for T47D % Kill: at maximum concentration tested
Description: (§1) To test the ability of the disclosed tubulysin payloads to kill human cell lines, an in vitro cytotoxicity assay was performed. In vitro cytotoxicity of the disclosed payloads, as well as reference compounds, were evaluated using the CellTiter-Glo Assay Kit (Promega, Cat #G7573), in which the quantity of ATP present is used to determine the number of viable cells in culture. For the assay, C4-2, HEK293, or T47D cells were seeded at 4000 cells/well on Nunclon white 96-well plates in complete growth medium (DME high glucose:Ham's F12 at 4:1, 10% FBS, 100 units/ml Penicillin, 100 ug/ml streptomycin, 53 ug/ml glutatmine, 10 ug/ml insulin, 220 ng/ml biotin, 12.5 pg/ml T3, 12.5 ug/ml Adenine, 4 ug/ml transferrin for C42 cells; DME high glucose, 10% FBS, 100 units/ml Penicillin, 100 ug/ml streptomycin, 53 ug/ml glutatmine for HEK293; RPMI, 10% FBS, 100 units/ml Penicillin, 100 ug/ml streptomycin, 53 ug/ml glutatmine, 10 ug/ml insulin, 10 mM HEPEs, 200 nM Sodium Pyruvate for T47D cells) and grown overnight at 37° C. in 5% CO2. For cell viability curves, 1:3 serially diluted payloads were added to the cells at final concentrations ranging from 100 nM to […], including a no treatment control group, and were then incubated for 5 days. After the 5-day incubation, cells were incubated at room temperature with 100 μL of CellTiter-Glo reagents for 10 minutes. Relative luminescence units (RLU) were determined on a Victor plate reader (PerkinElmer). The IC50 values were determined from a four-parameter logistic equation over a 10-point response curve (GraphPad Prism). All IC50 values are expressed in molar (M) concentration. The percent cell killing (% kill) at the maximum concentration tested was estimated from the following formula (100−% viable cells). Averages±standard deviation (SD) are included where replicate experiments were performed.

HEK293 cells = assay: Cell-based killing assay of payloads (CellTiter-Glo), HEK293 cells; parameters: species or system human; conditions: 5-day incubation; for IC50: Homo sapiens, HEK293, 120 h; for HEK293 % Kill: at maximum concentration tested
Description: as §1

HCT15 cells = assay: cells; format: cell-based, human; conditions: HCT15 cells; for HCT-15 + verapamil % Kill / HCT-15 % Kill: maximum % cell killing
In short: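 Five-day exposure of 1000 HCT15 cells/well to threefold payload dilutions, run both plus and minus verapamil (5 ug/mL) in RPMI with 10% FBS. ATP luminescence (CellTiter-Glo) gives viability; four-parameter logistic fit of 10 points yields IC50, and 100 − % viable at highest dose gives % kill.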

[1] = with 5 ug/mL Verapamil, read-out: HCT-15 + verapamil IC50
[2] = Homo sapiens, HCT-15, without Verapamil, read-out: HCT-15 IC50

CCCCCCON(C(=O)[C@@H](NC(=O)[C@H]1CCCCN1C)[C@@H](C)CC)[C@H](C[C@@H](OC(=O)NCC)c1nc(C(=O)N[C@@H](Cc2ccc(O)cc2)C[C@H](C)C(=O)O)cs1)C(C)C [VIb, (2S,4R)-5-(4-hydroxyphenyl)-4-(2-((6R,8R)-8-isopropyl-9-((2S,3S)-3-methyl-2-((R)-1-methylpiperidine-2-carboxamido)pentanoyl)-4-oxo-5,10-dioxa-3,9-diazahexadecan-6-yl)thiazole-4-carboxamido)-2-methylpentanoic acid]
IC50 (C4-2 cells): 12 nM
C4-2 % Kill (C4-2 cells): 96.5%
IC50 (T47D cells): 13.6 nM
T47D % Kill (T47D cells): 76.2%
IC50 (HEK293 cells): 20.3 nM
HEK293 % Kill (HEK293 cells): 75.4%
HCT-15 + verapamil % Kill (HCT15 cells; with 5 ug/mL Verapamil): 97.8%
IC50 (HCT15 cells; [1]): 2.88 nM
HCT-15 % Kill (HCT15 cells; without Verapamil): 54.7%
IC50 (HCT15 cells; [2]): > 50 nM

CCCCCCON(C(=O)[C@@H](NC(=O)[C@H]1CCCCN1C)[C@@H](C)CC)[C@H](C[C@@H](OC(=O)NCCCC)c1nc(C(=O)N[C@@H](Cc2ccc(O)cc2)C[C@H](C)C(=O)O)cs1)C(C)C [VId, (2S,4R)-5-(4-Hydroxyphenyl)-4-(2-((8R,10R)-10-isopropyl-11-((2S,3S)-3-methyl-2-((R)-1-methylpiperidine-2-carboxamido)pentanoyl)-6-oxo-7,12-dioxa-5,11-diazaoctadecan-8-yl)thiazole-4-carboxamido)-2-methylpentanoic acid]
IC50 (C4-2 cells): 2.4 nM
C4-2 % Kill (C4-2 cells): 95.5 ± 2.6%
IC50 (T47D cells): 2.51 nM
T47D % Kill (T47D cells): 68.4%
IC50 (HEK293 cells): 5.26 nM
HEK293 % Kill (HEK293 cells): 78.5%
HCT-15 + verapamil % Kill (HCT15 cells; with 5 ug/mL Verapamil): 99%
IC50 (HCT15 cells; [1]): 0.482 nM
HCT-15 % Kill (HCT15 cells; without Verapamil): 78.7%
IC50 (HCT15 cells; [2]): > 30 nM

CCCCCCNC(=O)O[C@H](C[C@H](C(C)C)N(OCCCCCC)C(=O)[C@@H](NC(=O)[C@H]1CCCCN1C)[C@@H](C)CC)c1nc(C(=O)N[C@@H](Cc2ccc(O)cc2)C[C@H](C)C(=O)O)cs1 [VIe, (2S,4R)-5-(4-Hydroxyphenyl)-4-(2-((9R,11R)-9-isopropyl-8-((2S,3S)-3-methyl-2-((R)-1-methylpiperidine-2-carboxamido)pentanoyl)-13-oxo-7,12-dioxa-8,14-diazaicosan-11-yl)thiazole-4-carboxamido)-2-methylpentanoic acid]
IC50 (C4-2 cells): 8.22 nM
C4-2 % Kill (C4-2 cells): 94.4 ± 0.2%
IC50 (T47D cells): 2.27 nM
T47D % Kill (T47D cells): 72.7%
IC50 (HEK293 cells): 4.77 nM
HEK293 % Kill (HEK293 cells): 76.7%
HCT-15 + verapamil % Kill (HCT15 cells; with 5 ug/mL Verapamil): 98.8%
IC50 (HCT15 cells; [1]): 0.295 nM
HCT-15 % Kill (HCT15 cells; without Verapamil): 36.6%
IC50 (HCT15 cells; [2]): > 100 nM

C#CCCCON(C(=O)[C@@H](NC(=O)[C@H]1CCCCN1C)[C@@H](C)CC)[C@H](C[C@@H](OC(=O)NCC)c1nc(C(=O)N[C@@H](Cc2ccc(N)cc2)CC(C)(C)C(=O)O)cs1)C(C)C [VIf, (4S)-5-(4-Aminophenyl)-4-({2-[(1R,3R)-1-[(ethylcarbamoyl)oxy]-4-methyl-3-[(2S,3S)-3-methyl-2-{[(2R)-1-methylpiperidin-2-yl]formamido}-N-(pent-4-yn-1-yloxy)pentanamido]pentyl]-1,3-thiazol-4-yl}formamido)-2,2-dimethylpentanoic acid]
IC50 (C4-2 cells): 0.312 nM
C4-2 % Kill (C4-2 cells): 93.9%
IC50 (T47D cells): 0.302 nM
T47D % Kill (T47D cells): 63.2%
IC50 (HEK293 cells): 0.383 nM
HEK293 % Kill (HEK293 cells): 85.6%
HCT-15 + verapamil % Kill (HCT15 cells; with 5 ug/mL Verapamil): 98.8%
IC50 (HCT15 cells; [1]): 0.0854 nM
HCT-15 % Kill (HCT15 cells; without Verapamil): 99.1%
IC50 (HCT15 cells; [2]): 2.06 nM
